What was measured:
RHOXF2 promoter region = experiment: Comparison of dCas9- and TALE-based methylation editing, RHOXF2 promoter, bisulfite sequencing in HEK293T cells; format: cell-based
Method: FIGS. 10A-10G depict comparison of TALE- and dCas9-based methylation editing. […] Transfection positive cell populations (cherry+) or (GFP+) were FACS sorted 48-hour post-transfection. Methylation levels of each individual CpG in the p16 promoter region were analyzed by bisulfite sequencing. Shown is the mean percentage±SD of two biological replicates with a total of 34 single colonies sequenced for dCas9-Dnmt3a and 31 single colonies sequenced for TALE-Dnmt3a. Red arrow indicates the position of p16 target gRNA, and purple arrow indicates the binding site for TALE-Dnmt3a. FIG. 10B depicts HEK293T cells were co-transfected with dCas9-Tet1 and one RHOXF2 target gRNA (with puro cassette) or TALE-Tet1 with a puro cassette expressing plasmid. Puromycin (2 ug/ml) was added to the culture medium to select for transfection positive cells. Cells were harvested after 2-day selection for analysis of methylation levels for individual CpGs in the RHOXF2 promoter region by bisulfite sequencing. Shown is the mean percentage±SD of two biological replicates with a total of 34 single colonies sequenced for dCas9-Tet1 and 38 single colonies sequenced for TALE-Tet1. Red arrow indicates the position of RHOXF2 target gRNA, and purple arrow indicates the binding site for […]. […]

[1] = test system: MyoD distal enhancer (DMR-5) / MyoD expression; experiment: MyoD expression in C3H10T1/2 cells (RT-qPCR); format: cell-based, mouse

dCas9-Tet1: catalytically inactive Cas9 (dCas9) fused through NLS to the Tet1 catalytic domain, SEQ ID NO: 159; lentivirally expressed with gRNAs
region (effective range) of methylation decrease in the RHOXF2 promoter (RHOXF2 promoter region; CpGs with change of methylation greater than 10%): 150 bp | average decrease of methylation in the RHOXF2 promoter (RHOXF2 promoter region; one single gRNA or TALE at the same site, 2-day puromycin selection): 28% | induction of MyoD expression ([1]; MyoD DMR-5 gRNAs combined with 5-Aza treatment (48-hour)): higher induction of MyoD | induction of MyoD expression ([1]; with 4 gRNAs targeting DMR-5, C3H10T1/2 cells, 2 days, Cherry positive sorted): 3 fold

From patent US12060588B2, “Methods of editing DNA methylation” (Whitehead Institute for Biomedical Research, priority 2016, dated 2024)
